Test results: ChEMBL document CHEMBL1681656, “Design and synthesis of AApeptides: a new class of peptide mimics” (Bioorg Med Chem Lett, 2011)

Experiments:
[1] = Inhibition of GST-MDM2/His6-p53 interaction expressed in Escherichia coli after 1 hr by ELISA
[2] = Chemical stability of the compound assessed as enzymatic hydrolysis in ammonium bicarbonate buffer at pH 7.8 after 24 hrs in presence of pronase; type: physicochemical; conditions: pH 7.8, 24 h
[3] = Chemical stability of the compound assessed as enzymatic hydrolysis in ammonium bicarbonate buffer at pH 7.8 after 24 hrs in presence of trypsin; type: physicochemical; conditions: isolated protein, pH 7.8, 24 h
[4] = Chemical stability of the compound assessed as enzymatic hydrolysis in ammonium bicarbonate buffer at pH 7.8 after 24 hrs in presence of chymotrypsin; type: physicochemical; conditions: isolated protein, pH 7.8, 24 h

IC50 [1] [µM] | Stability [2] | Stability [3] | Stability [4] | Structure (SMILES)
> 1000 |  |  |  | CCC(=O)N(CCNC(=O)[C@H](Cc1c[nH]c2ccccc12)N(CCNC(=O)[C@H](Cc1ccccc1)N(CCNC(=O)[C@H](C)N(CCN)C(=O)CC(C)C)C(=O)CC)C(=O)CCO)[C@H](C(N)=O)C(C)C
120 |  |  |  | CCC(=O)N(CCNC(=O)[C@H](CC(C)C)N(CCNC(=O)[C@H](Cc1c[nH]c2ccccc12)N(CCNC(=O)[C@H](Cc1ccccc1)N(CCN)C(=O)CC)C(=O)CCO)C(=O)CC)[C@@H](C)C(N)=O
38 |  |  |  | CCC(=O)N(CCNC(=O)[C@H](CC(C)C)N(CCNC(=O)[C@H](Cc1c[nH]c2ccccc12)N(CCNC(=O)[C@H](Cc1ccccc1)N(CCNC(=O)[C@H](C)N(CCN)C(=O)CC)C(=O)CC)C(=O)CCO)C(=O)CC)[C@@H](C)C(N)=O

Further lines, the compound ahead of its results:

Structure (SMILES) | IC50 [1] [µM] | Stability [2] | Stability [3] | Stability [4]
CCC(=O)N(CCNC(=O)[C@H](CC(C)C)N(CCNC(=O)[C@H](Cc1c[nH]c2ccccc12)N(CCNC(=O)[C@H](Cc1ccccc1)N(CCNC(=O)[C@H](C)N(CCN)C(=O)CC)C(=O)CC)C(=O)CCO)C(=O)CCc1ccccc1)[C@@H](C)C(N)=O | 120 | Stable | Stable | Stable
CC(=O)N[C@@H](CCC(N)=O)C(=O)N[C@@H](CCC(=O)O)C(=O)N[C@H](C(=O)N[C@@H](Cc1ccccc1)C(=O)N[C@@H](CO)C(=O)N[C@@H](CC(=O)O)C(=O)N[C@@H](CC(C)C)C(=O)N[C@@H](Cc1c[nH]c2ccccc12)C(=O)N[C@@H](CCCCN)C(=O)N[C@@H](CC(C)C)C(=O)N[C@@H](CC(C)C)C(=O)N1CCC[C@H]1C(=O)O)[C@@H](C)O | 8.7 |  |  | 
